From paper PMC11982498 (Redox Biology, 2025)

Key:
[1] = target: BCL-2 gene promoter i-motif; assay: SPR binding to BCL-2 promoter i-motif; conditions: MES buffer pH 5.5, 25 °C
Method: SPR measurement was performed on a ProteOn XPR36 protein interaction array system (Bio-Rad Laboratories, Hercules, California, USA) using a Neutravidin-coated GLH sensor chip. BCL-2 i-motif binding analysis was performed following a published method without significant modification. For immobilization, 5′-biotin-labeled DNA oligomers at 800 nM annealed in 1 × MES buffer at pH 5.5 by heating at 95 °C for 5 min, were attached to a reptavidin-coated sensor chip. Compounds were prepared through serial dilution with flowing buffer (20 mM MES, 100 mM KCl, pH 5.5 for i-motif) in at least 6 concentrations, which were simultaneously injected at a flow rate of […] for a 120 s of association phase, followed by 250 s of dissociation phase at 25 °C. Langmuir model was used for fitting kinetic data, which was analyzed with ProteOn manager software. KD values were determined through equation KD = kd/ka. Compound A22 was used as a positive control, and other compounds were selected as candidates only if their KD values for binding to BCL-2 i-motif were similar to that of A22.

RB promoter i-motif = assay: TO displacement assay, RB i-motif; type: binding
Method: DNA oligonucleotides were diluted to 1 μM with 1 × PBES buffer at pH 5.5, annealed at 95 °C for 10 min, cooled to room temperature, and stored at 4 °C for future use. TO dye (1 μM) was added to the DNA solution followed with incubation for 1 h. The spectra of 100 μL mixture with addition of different equivalent compounds at 25 °C were recorded based on fluorescence emission (λex = 480 nm).
TO displacement ratio (%) = (F0 − FC) / (F0 − FB) * 100.
F0 and FC were the fluorescence intensity of TO at 536 nm with DNA before and after adding compounds, respectively. FB was the fluorescence intensity of TO at 536 nm with buffer only.

BCL-2 promoter i-motif = assay: CD melting experiment, BCL-2 i-motif; type: binding; conditions: BPES buffer pH 5.5; 20 equivalents (20 μM) compound
Method: CD-melting experiment was carried out following a published method without significant modification. BCL-2 promoter i-motif and G-quadruplex structures at a concentration of 5 μM were annealed in buffer at 95 °C for 10 min, and then cooled to room temperature. The annealed samples were incubated with B14 for 6 h, and then molar ellipticity at 287 nm for i-motif structure or 260 nm for G-quadruplex structure, where the CD value was the highest in our experiment, was measured over a temperature range of 20–90 °C at a heating rate of 0.5 °C/min. Tm values were determined and calculated through nonlinear regression curve fitting with software GraphPad Prism 9.0. (GraphPad Software Inc., California, USA).
Figure S6. CD melting experiments were performed to examine the effects of B14 and A22 on BCL-2 promoter i-motif and G-quadruplex. (A-H) CD melting experiments were performed for BCL-2 promoter i-motif or G-quadruplex in the absence or presence of B14 (2, 5, 20 equivalents) and A22 (20 equivalents). The oligonucleotide for BCL-2 i-motif was annealed in 1 X BPES buffer at pH 5.5, while the oligonucleotide for BCL-2 G-quadruplex was annealed in 20 mM Tris-HCl buffer with 20 mM NaCl at pH 7.4. The ΔTm values for the effects of B14 and A22 on BCL-2 promoter i-motif were determined to be 11.26 °C and 11.82 °C, respectively. […]

[2] = test system: BCL-2, C-MYC and VEGF protein expressions in SH-SY5Y cells; assay: Western blot in SH-SY5Y cells; type: cell-based; conditions: increasing concentration of B14, 24 h
Method: Protein samples (25–40 μg) were separated using 10 % SDS-PAGE and subsequently transferred onto PVDF membranes (0.22 μm, Servicebio, Guangzhou, China) via electro transfer. Following blocking with TBST solution (Servicebio, Guangzhou, China) containing 5 % BSA (Solarbio, Beijing, China) for approximately 60 min at room temperature, the membrane was exposed to various primary antibodies overnight at 4 °C on a rotating shaker. Then, the membranes were incubated with HRP-conjugated secondary antibody (Affinity, Changzhou, China) for 2 h. Protein bands were then detected using an ECL kit. The signal intensity of each target protein was quantified using Image J 1.8.0 software (Bio-Rad Laboratories, California, USA).
Primary antibodies for Western blot analysis include BCL-2 (affinity biosciences OH, Cat# AF6139, USA), BAX (affinity biosciences OH, Cat# AF0120, USA), VEGF (affinity biosciences OH, Cat# AF5131, USA), C-MYC (affinity biosciences OH, Cat# AF0358, USA), Caspase9 (affinity biosciences OH, Cat# AF6348, USA), cleaved-Caspase9 (affinity biosciences OH, Cat# AF5240, USA), Caspase3 (affinity biosciences OH, Cat# AF6311, USA), cleaved-Caspase3 (affinity biosciences OH, Cat# AF7022, USA), and Cyto-C (affinity biosciences OH, Cat# AF6139, USA).

SH-SY5Y cells = assay: JC-1 / Mito-tracker / H2DCFDA / Ca2+ staining in Aβ1-42 induced cell model; type: cell-based; conditions: 25 μM Aβ1-42 induced model
Method: SH-SY5Y cells were plated on 96 well plates. After 24h treatment with or without B14 in 25 μM Aβ1-42 induced cell model, the cells were washed for three times with cold PBS. Then cells were incubated with Hoechst 33342 solution (Sigma, 10 μg/mL) and H2DCFDA probe (10 μM, sigma), as well as Mito-tracker deep red (100 nM, sigma) for 10 min at 37 °C in the dark. All the samples were photographed by using FV3000 (Olympus). SH-SY5Y cells were plated on 6 well plates. After 24h treatment with B14 in 25 μM Aβ1-42 induced cell model, cells were incubated with JC-1 (5 μg/mL, sigma) for 30 min at 37 °C in the dark. Fluorescence detection was carried out by using EVOS FL Auto.

[3] = test system: BCL-2(G4) (DNA, G4) AGGGGCGGGCGCGGGAGGAAGGGGGCGGGAGCGGGGCTG; assay: CD melting, 260 nm; conditions: K+ 100 mM; Figure S6 legend says Na+ 20 mM; Tris-HCl, pH 7.4; 20 μM B14, 2 μM DNA

`O=C(CCN1CCOCC1)Nc1ccc2c(c1)c(=O)c1cc(NC(=O)CCN3CCOCC3)ccc1n2-c1ccc2occc2c1` [Compound B14] was tested, and the Kd [1] was 2130 nM, the TO displacement ratio (RB promoter i-motif) was 1% and the “ΔTm (CD melting)” value (BCL-2 promoter i-motif) was 11.26 °C. The “BCL-2 translation (Western blot)” value [2] was “up-regulate BCL-2 translation in SH-SY5Y cells in a dose-dependent manner”, the “C-MYC and VEGF expression (Western blot)” value [2] was “without significant effect on C-MYC and VEGF expression” and the “intracellular Ca^2+ (Fluo-5AM)” value (SH-SY5Y cells) was “could modulate aberrantly metabolized Ca^2+ in model cells in a dose-dependent manner”. The “oxidative stress (H2DCFDA) and mitochondrial number (MitoTracker)” value (SH-SY5Y cells) was “could attenuate oxidative stress without changing mitochondrial number”, the “red/green fluorescence intensity ratio (JC-1, mitochondrial membrane potential)” value (SH-SY5Y cells) was “could reduce the occurrence of early apoptosis” and the ΔTm [3] was -3.13 °C.
